Legend:
[1] = tested on: Bax; experiment: Bax expression level (ELISA) in MDA-MB-231 cells; type: cell-based, human; conditions: 24 h incubation
Method: (§1) The levels of two members of Bcl-2 family proteins, the anti-apoptotic Bcl-2 protein, and the counteracting pro-apoptotic Bax protein, as well as the level of active caspase-3 (a key executioner protease) in MDA-MB-231 and MCF-7 cells have been assessed after incubation with QBS 11c and 13b for 24 h.
(§2) All adopted procedures for the conducted in vitro biological assays were performed as described earlier; CA (stopped-flow), cytotoxicity (MTT [37, 38]), and assessment of apoptotic markers assays, as well as induction of hypoxia with cobalt chloride, and were mentioned in the Supporting Materials. […]
(§3) 3. Assessment of Apo ptotic Markers Levels
(§4) The levels of the pro-apoptotic markers (Bax and active caspase-3) as well as the anti-apoptotic marker Bcl-2 were determined using ELISA kits; Human Bax ELISA Kit (EIA-4487) DRG® Instruments, Bcl-2 ELISA Kit (99–0042), Zymed® Laboratories, Invitrogen Immunodetection, and Human Caspase-3 (active) ELISA Kit (KHO1091) Invitrogen®, per the manufacturer’s instructions. Breast cancer MDA-MB-231 and MCF-7 cells were cultured as a monolayer in T-25 flasks and were seeded to attain 30% confluency prior to treatment. Cells were then treated separately with MBFS 11b at its IC50 concentration for 24 h. At the end of treatment, cells were collected via trypsinization and centrifuged at 10,000 rpm. The pellet was then rinsed with PBS and lysed in RIPA lysis buffer at 4 °C for 45 min, then centrifuged at 14,000 rpm for 20 min to remove the cellular debris. Lysates were then collected and stored at −80 °C for later protein determination using Pierce BCA Protein Assay Kit according to manufacturer’s recommendations.
(§5) The cell lysate was diluted 10 times, and 100 μL ([…]) was added to the wells of […] separate microtiter plates for the three ELISA kits th at were pre-coated with primary antibodies specific to Bax, Bcl-2, and caspase-3 proteins, respectively. A secondary biotin-linked antibody specific to the protein captured by the primary antibody was further added to bind the […]
(§6) captured protein, forming a “sandwich” of specific antibodies around the desired protein in the cell lysate. The streptavidin-HRP complex was then used to bind the biotin-linked secondary antibody through its streptavidin portion. The HRP domain reacted with the added TMB substrate to form a colored product that measured at 450 nm by a plate reader ChroMate-4300 after the reaction was terminated via the addition of stop solution. […]
(§7) The ligand 3D structures were prepared by Maestro and their ionization states was checked with Epik at pH 7.4±0.5 then they were subjected to energy minimization using OPLS3 force field in Macromodel with a maximum number of 2500 conjugate gradient iteration and a convergence of 0.05 kcal mol−1 A−1. […]

[2] = tested on: active caspase-3; experiment: active caspase-3 level (ELISA) in MDA-MB-231 cells; type: cell-based, human; conditions: 24 h incubation
Method: as §1, §2, §3, §4, §5, §6, §7

[3] = tested on: Bcl-2; experiment: Bcl-2 expression level (ELISA) in MCF-7 cells; type: cell-based, human; conditions: for Bcl-2 / Bcl-2, folds of control: 24 h incubation; for suppression of the expression level of Bcl-2 protein: compared to the untreated control
Method: as §1, §2
(§8) monolay er. Cell monolay ers were treated in quadrates with vehicle (DMSO, 0.1% v/v), test samples or Adriamycin as positive control for an exposure time of 72 h. At the end of exposure, MTT solution in PBS (5 mg/ml) was then added to all well including no cell blank and left to incubate for 90 min. The formation of formazan crystals were visually confirmed using phase contract microscopy. DMSO (100 µl/well) was added to dissolve the formazan crystals with shaking for 10 min after which the absorbance was read at 590 nm against no cell blanks on a FLuo Star Optima microplate reader (BMG technologies, Germany). Cell proliferation was calculated comparing the OD values of the DMSO control wells and those of the samples represented as % proliferation to the control. Dose-response experiment was performed on samples producing > or =50% loss of cell proliferation using five serial 2-fold dilutions (50, 25, 12.5, 6.25 and 3.125 µM) of the sample. IC50 values (concentration of sample causing 50% loss of cell proliferation of the vehicle control) were calculated using non-linear regression curve fitting of the dose response plots on GraphPad Prism V.6.0 software.
as §3, §4, §5, §6
as §7, with “A−1. Glide with default” for “A−1.”

[4] = tested on: active caspase-3; experiment: active caspase-3 level (ELISA) in MCF-7 cells; type: cell-based, human; conditions: 24 h incubation
Method: as §1, §2, §8, §3
The levels of the pro-apoptotic markers (Bax and active caspase-3) as well as the anti-apoptotic marker Bcl-2 were determined using ELISA kits; Human Bax ELISA Kit (EIA-4487) DRG® Instruments, Bcl-2 ELISA Kit (99–0042), Zymed® Laboratories, Invitrogen Immunodetection, and Human Caspase-3 (active) ELISA Kit (KHO1091) Invitrogen®, per the manufacturer’s instructions. Breast cancer MDA-MB-231 and MCF-7 cells were cultured as a monolayer in T-25 flasks and were seeded to attain 30% confluency prior to treatment. Cells were then treated separately with MBFS 11b at its IC50 concentration for 24 h. […]
captured protein, forming a “sandwich” of specific antibodies around the desired protein in the cell lysate. […] The HRP domain reacted with the added TMB substrate to form a colored product that measured at 450 nm by a plate reader ChroMate-4300 after the reaction was terminated via the addition of stop solution. […]

[5] = biological target: hCA II (Homo sapiens, UniProt P00918); experiment: stopped flow carbon dioxide hydrase assay, hCA II
[6] = biological target: hCA XII (Homo sapiens, UniProt O43570); experiment: stopped flow carbon dioxide hydrase assay, hCA XII; conditions: for Selectivity ratio I/XII: hCA XII over hCA I; for Selectivity ratio II/XII: hCA XII over hCA II
Chain of hCA XII (O43570 25-354): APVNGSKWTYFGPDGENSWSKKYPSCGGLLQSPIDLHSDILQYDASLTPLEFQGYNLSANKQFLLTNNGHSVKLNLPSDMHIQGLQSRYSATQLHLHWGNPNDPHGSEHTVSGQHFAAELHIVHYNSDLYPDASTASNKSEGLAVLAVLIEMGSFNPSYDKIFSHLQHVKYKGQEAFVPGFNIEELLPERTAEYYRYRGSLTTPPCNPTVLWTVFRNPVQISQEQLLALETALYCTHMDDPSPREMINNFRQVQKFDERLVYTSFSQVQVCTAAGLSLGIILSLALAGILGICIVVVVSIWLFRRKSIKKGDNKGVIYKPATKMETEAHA

Row | SMILES | BAX [1] | BAX, folds of control [1] | Active Caspase-3 [2] | Active Caspase-3, folds of control [2] | Bcl-2 [3] | Bcl-2, folds of control [3] | suppression of the expression level of Bcl-2 protein [3] [%] | Active Caspase-3 [4] | Active Caspase-3, folds of control [4] | melting point [°C] | Ki [5] [nM] | Ki [6] [nM] | Selectivity ratio I/XII [6] | Selectivity ratio II/XII [6]
1 | COc1ccc2nccc(Nc3ccc(S(N)(=O)=O)cc3)c2c1 [13b, 4-((6-methoxyquinolin-4-yl)amino)benzenesulfonamide] | 373.5 ± 10.4 Pg/mg of Total Protein | 6.3 folds of control | 9.32 ± 0.73 Pg/mg of Total Protein | 3.62 folds of control | 5.72 ± 0.13 Pg/mg of Total Protein | 0.62 folds of control | 38 | 14.82 ± 0.43 Pg/mg of Total Protein | 3.02 folds of control | 250 to 252 | 58.4 | 13.2 | 7.0 | 4.4
2 | NS(=O)(=O)c1cccc(Nc2ccnc3ccc(Cl)cc23)c1 [11c, 3-((6-chloroquinolin-4-yl)amino)benzenesulfonamide] | 420.9 ± 8.24 Pg/mg of Total Protein | 7.1 folds of control | 12.69 ± 1.14 Pg/mg of Total Protein | 4.93 folds of control | 7.29 ± 0.15 Pg/mg of Total Protein | 0.79 folds of control | 21 | 17.83 ± 0.62 Pg/mg of Total Protein | 3.64 folds of control | – | 155 | 55.3 | 8.0 | 2.8
